From patent publication US7429474B2, “2-O sulfatase compositions and methods of analyzing therewith” (Massachusetts Institute of Technology, priority 2003, dated 2008)

Tested on: Δ 4,5 glycuronidase
Test: Δ 4,5 glycuronidase activity (loss of UV absorption at 232 nm)
Format: biochemical, F. heparinum
Conditions: 2 mM substrate, 250 nM Δ 4,5 enzyme alone, 30° C.
Method: The substrate-product relationship between the two enzymes was examined by directly measuring Δ 4,5 glycuronidase activity either before or following the addition of recombinant 2-O sulfatase. Reactions were carried out at 30° C. and included 50 mM MES, pH 6.5, 100 mM NaCl, and 2 mM ΔU2SHNS in a 100 μL reaction volume. In these experiments, 250 nM Δ 4,5 glycuronidase and 25 nM 2-O ΔN^1-24 were sequentially added as follows: Δ 4,5 alone, Δ 4,5 followed by 2-O sulfatase, or 2-O sulfatase followed by Δ 4,5.
We hypothesized that, an obligatory substrate-product relationship between the 2-O sulfatase and the Δ 4,5 glycuronidase may exist. We examined a possible kinetic relationship between these two enzymes by looking at their sequential action (FIG. 7). In this experiment, Δ 4,5 glycuronidase activity was measured directly either […] or following the addition of the recombinant 2-O sulfatase using the disaccharide substrate ΔU2SHNS. […] In the reciprocal experiment (i.e., whereby the 2-O sulfatase was added second), we observed an initial lag in Δ 4,5 activity. This lag was followed by a linear Δ 4,5 activity, albeit at a slower rate than in the case where the 2-O sulfatase was added first. The observed delay in activity was presumably due to the prerequisite 2-O desulfation of the substrate which must occur prior to being acted on by the glycuronidase.

In the case of `O=C(O)C1=C[C@H](O)[C@@H](OS(=O)(=O)O)[C@H](O[C@H]2[C@H](O)[C@@H](NS(=O)(=O)O)C(O)O[C@@H]2CO)O1` (stereo partly shown) [ΔU2SHNS], the glycuronidase-mediated hydrolysis is reported as “completely refractory”.
